Measured values: publication PMC2621304 (Analytical biochemistry, 2008)

Columns and labels:
[1] = target: T1, Rat AhR (Rattus norvegicus, UniProt P41738); assay: Competitive binding assay against [3H]-TCDD, recombinant rat AhR
T1 sequence (P41738 10-853): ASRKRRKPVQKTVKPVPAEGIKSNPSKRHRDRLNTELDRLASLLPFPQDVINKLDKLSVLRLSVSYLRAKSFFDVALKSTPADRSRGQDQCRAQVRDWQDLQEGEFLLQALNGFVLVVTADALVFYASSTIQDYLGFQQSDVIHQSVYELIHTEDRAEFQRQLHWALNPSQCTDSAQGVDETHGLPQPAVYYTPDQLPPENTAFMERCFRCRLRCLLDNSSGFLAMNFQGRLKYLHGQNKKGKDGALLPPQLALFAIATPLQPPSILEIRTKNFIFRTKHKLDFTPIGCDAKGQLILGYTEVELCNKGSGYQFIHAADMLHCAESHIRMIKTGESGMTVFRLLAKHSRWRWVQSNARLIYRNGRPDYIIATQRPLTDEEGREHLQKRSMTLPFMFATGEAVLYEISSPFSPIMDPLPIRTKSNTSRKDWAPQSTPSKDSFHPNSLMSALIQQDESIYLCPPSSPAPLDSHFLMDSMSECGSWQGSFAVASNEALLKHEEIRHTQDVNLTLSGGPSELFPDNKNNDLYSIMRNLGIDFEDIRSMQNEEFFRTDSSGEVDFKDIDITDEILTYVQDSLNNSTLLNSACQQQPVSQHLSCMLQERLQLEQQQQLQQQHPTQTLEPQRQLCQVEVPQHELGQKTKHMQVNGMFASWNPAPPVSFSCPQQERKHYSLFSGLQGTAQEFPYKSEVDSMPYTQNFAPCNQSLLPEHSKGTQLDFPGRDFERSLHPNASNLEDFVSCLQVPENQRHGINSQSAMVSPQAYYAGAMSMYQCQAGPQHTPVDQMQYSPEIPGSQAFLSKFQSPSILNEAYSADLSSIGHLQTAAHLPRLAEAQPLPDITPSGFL

[2] = target: T2, Human AhR (Homo sapiens, UniProt P35869); assay: Competitive binding assay against [3H]-TCDD, recombinant human AhR
T2 sequence (P35869 11-848): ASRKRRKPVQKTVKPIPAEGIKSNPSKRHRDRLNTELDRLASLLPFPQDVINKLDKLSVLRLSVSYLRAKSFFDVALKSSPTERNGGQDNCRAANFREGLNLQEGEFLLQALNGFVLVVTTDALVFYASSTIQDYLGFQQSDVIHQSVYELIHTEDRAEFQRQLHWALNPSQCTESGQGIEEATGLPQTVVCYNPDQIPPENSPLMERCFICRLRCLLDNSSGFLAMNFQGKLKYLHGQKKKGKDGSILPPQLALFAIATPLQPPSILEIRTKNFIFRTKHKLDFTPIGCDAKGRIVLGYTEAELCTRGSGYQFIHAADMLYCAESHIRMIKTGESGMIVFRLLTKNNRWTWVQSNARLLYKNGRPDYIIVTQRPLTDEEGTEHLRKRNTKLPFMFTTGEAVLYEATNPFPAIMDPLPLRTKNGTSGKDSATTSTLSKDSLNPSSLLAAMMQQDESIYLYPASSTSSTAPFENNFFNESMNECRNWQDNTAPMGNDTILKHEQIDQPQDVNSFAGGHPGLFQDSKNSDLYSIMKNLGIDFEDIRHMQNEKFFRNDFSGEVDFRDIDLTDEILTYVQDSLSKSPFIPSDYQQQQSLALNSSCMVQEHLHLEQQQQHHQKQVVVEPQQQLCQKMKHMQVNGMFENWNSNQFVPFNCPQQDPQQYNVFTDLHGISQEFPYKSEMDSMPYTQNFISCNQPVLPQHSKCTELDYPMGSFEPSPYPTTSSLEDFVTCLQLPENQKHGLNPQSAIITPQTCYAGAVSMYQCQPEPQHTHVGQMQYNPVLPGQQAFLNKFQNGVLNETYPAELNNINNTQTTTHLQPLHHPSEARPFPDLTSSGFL

[3] = target: T1, Rat AhR; assay: [3H]-TCDD saturation binding, recombinant rat AhR in Sf9 cytosol
[4] = target: T3, AhR in rat liver cytosol (Rattus norvegicus, UniProt P41738); assay: [3H]-TCDD saturation binding, rat liver cytosol
T3 sequence (P41738 10-853): T1 sequence (P41738 10-853)

[5] = target: T2, Human AhR; assay: [3H]-TCDD saturation binding, recombinant human AhR in Sf9 cytosol; conditions: optimised conditions
[6] = Solubility of TCDD in protein solution; format: physicochemical; conditions: unpublished data

For `Clc1ccc(-c2cc(Cl)c(Cl)c(Cl)c2)cc1Cl` [PCB126, polychlorinated biphenyl 126], the Ki [1] was 24.7 nM, the “fold less potent than TCDD, rat AhR” value ([1]; relative to TCDD) was about 50 fold and the Ki [2] was 736 nM. For the same compound, the “fold less potent as a ligand than TCDD, human AhR” value ([2]; relative to TCDD) was about 40 fold.

In the case of `Clc1cc2c(cc1Cl)Oc1c(cc(Cl)c(Cl)c1Cl)O2` [1,2,3,7,8-pentachlorodibenzo-p-dioxin], the Ki [1] is reported as 0.46 nM and the Ki [2] is reported as 7.62 nM.

With `Clc1cc2oc3c(Cl)c(Cl)c(Cl)cc3c2cc1Cl` [2,3,4,7,8-pentachlorodibenzofuran] the Ki [1] was 1.5 nM, the “potency as ligand relative to PCDD, rat AhR” value ([1]; relative to PCDD) was “three-fold less potent” and the Ki [2] was 14.1 nM. For the same compound, the “potency relative to TCDF and PCDD, human AhR” value [2] was “two-fold less potent”.

For `Clc1cc2c(cc1Cl)Oc1cc(Cl)c(Cl)cc1O2` [TCDD, 2,3,7,8-tetrachlorodibenzo-p-dioxin], the Kd ([3]; Kd (typical experiment, Fig. 5A), MOI of 0.1, typical experiment) was 1.35 nM, the Kd ([3]; Kd for TCDD, recombinant rat AhR, MOI of 0.1, n=6 independent determinations) was 1.34 ± 0.32 nM and the “Bmax, recombinant rat AhR” value ([3]; MOI of 0.1, [3H]-TCDD) was 1.5±0.37 pmol/ mg cytosolic protein. The “Bmax (typical experiment, Fig. 5A)” value ([3]; MOI of 0.1, typical experiment) was 1.83 pmol/mg, the Ki [1] was 0.55 nM and the Ki [2] was 15.4 nM. The “potency relative to TCDF and PCDD, human AhR” value [2] was “two-fold less potent”, the Kd ([4]; apparent Kd for TCDD, saturation binding, mean ± Standard deviation, n=6) was 1 ± 0.45 nM and the “maximal binding capacity (Bmax)” value ([4]; per mg cytosolic protein, [3H]-TCDD) was 52 fmol/mg. The Kd ([5]; Kd for TCDD, human AhR, n=6) was 2.77 ± 0.94 nM, the “Bmax, human AhR” value ([5]; [3H]-TCDD) was 0.46±0.12 pmol/mg cytosolic protein and the “solubility in protein solution” value [6] was “declines dramatically at concentrations much in excess of 2 nM”.

With `Clc1cc2oc3cc(Cl)c(Cl)cc3c2cc1Cl` [2,3,7,8-tetrachlorodibenzofuran] the Ki [1] was 0.36 nM and the Ki [2] was 6.27 nM.
